For this experiment, the system named is C57BL/6J mice. The experiment is described as follows: Sub-therapeutic antibiotic treatment (STAT) in drinking water, body composition versus Control drinking water. As to conditions: STAT penicillin versus Control drinking water. Format: in vivo. From the text: C57BL/6J (Jackson Labs, Bar Harbor Me.) mice either received no antibiotics (control) or continuous subtherapeutic antibiotic treatment (STAT) with penicillin in their drinking water. Mice were weaned at 4 weeks onto normal chow (13.2% fat, 5053 PicoLab Rodent Diet 20, LabDiet, Brentwood, Mo.) then changed to a high fat diet (45% kcal from fat, D12451, Research Diets, New Brunswick, N.J.) at 6 weeks of life. At 18 weeks of age, the three animals with weight at or closest to the median were selected as cecal content donors from each group (Control, n=7; STAT, n=8). Donor mice were humanely euthanized, and the proximal ⅓ of the cecum was aseptically removed and immediately (less than 1 minute) placed in reduced (no oxygen), sterile liquid dental transport media (Anaerobe Systems, Morgan Hill Calif.). The cecal samples in anaerobic transport media were brought into an anaerobic chamber within an hour of collection (Sheldon, Cornelius Oreg.). The three cecal samples from each group (STAT or Control) were pooled, and reduced, sterile saline was added to a final volume of 8 mL, of which 3 mL was used for microbiota transfer. To maintain viability of anaerobic organisms, vials containing the inoculum were not opened. […]
Mice were fed normal chow, then switched to high fat diet at 6 weeks of age. […] Microbiota recipient mice were given a high fat diet and monitored for 5 weeks. […]

We go through 1 substance from US20150037285A1, “METHODS FOR EFFICIENT TRANSFER OF VIABLE AND BIOACTIVE MICROBIOTA” (NEW YORK UNIVERSITY, priority 2013, published 2015).

Consider penicillin, for which the Body composition entry was “changes in body composition”.
